Patent publication US5399487A, “6-peptidylamino-1-naphthalenesulfonamides useful as fluorogenic proteolytic enzyme substrates” (Haematologic Technologies, Inc., priority 1993, dated 1995)
Where a SMILES comes first, the peptide text is derived from it. The star is where a group is joined. pNA = O=[N+]([O-])c1ccc(N*)cc1; Tos = Cc1ccc(S(=O)(=O)*)cc1

Assays:
Assay type in all cases: biochemical
[1] = target: T1, factor IIa (Homo sapiens, UniProt P00734); assay: Kinetic constants of substrate hydrolysis, Chromozyme TH vs TosGPR-ANSN (Table A); details: 22° C., 0.02M TBS pH 7.4, 0.15M NaCl
T1 construct: 0.5 nM human thrombin (IIa)
Procedure: (§1) The 6-amino-1-naphthalenesulfonamide detecting group increased the specificity of the overall kinetic efficiency of substrate hydrolysis by thrombin relative to the rate of hydrolysis of the p-nitroanilide substrate chromozyme TH (American Diagnostics). Commercially available substrate (Chromozyme TH, TosGPR-p-NA) was compared to a substrate of the present invention, Tosgly-pro-arg-ANSN(i-C4 H9) (TosGPR-ANSNH(i-C4 H9)) in an assay performed at 22° C. in 0.02M TBS buffer at pH 7.4, containing 0.15M NaCl.

[2] = target: T2, factor Xa (Homo sapiens, UniProt P00742); assay: as above; details: 22° C., 0.02M TBS pH 7.4, 0.15M NaCl
Procedure: as §1

[3] = target: T3, factor VIIa (Homo sapiens, UniProt P08709); assay: Fluorogenic enzyme assay, relative hydrolysis rates (Table 8); details: at 100 hours; 10 nM enzyme, substrate 1 μM
T3 construct: directly measure the enzymatic activity of factor VIIa in the presence and absence of tissue factor and phospholipid
T3 sequence (P08709 213-466 limits assumed): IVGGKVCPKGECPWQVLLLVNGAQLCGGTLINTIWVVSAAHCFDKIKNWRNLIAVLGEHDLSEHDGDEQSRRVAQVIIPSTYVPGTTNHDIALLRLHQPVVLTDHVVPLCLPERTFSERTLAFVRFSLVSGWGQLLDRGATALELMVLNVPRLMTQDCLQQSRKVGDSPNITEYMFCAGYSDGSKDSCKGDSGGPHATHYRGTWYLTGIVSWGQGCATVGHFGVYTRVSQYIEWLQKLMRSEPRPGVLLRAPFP
T3 sequence (P08709 61-212 limits assumed): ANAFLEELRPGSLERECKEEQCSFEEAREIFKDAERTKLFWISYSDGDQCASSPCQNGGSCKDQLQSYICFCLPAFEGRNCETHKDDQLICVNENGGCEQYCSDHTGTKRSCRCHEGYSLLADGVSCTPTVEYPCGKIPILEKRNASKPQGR
Procedure: (§2) Enzyme assays (except factor VIIa assays, see below) were conducted in 20 mM Tris, 150 mM NaCl, pH 7.4 (TBS) at room temperature (22° C.). The final volume for all reaction mixtures was 2.0 ml. Fluorogenic substrates were dissolved in DMSO to a stock concentration of 10 mM. The 10 mM stock solution was diluted in TBS to the final working concentration prior to all assays. Enzyme was added to mixtures containing buffer components and substrate and the initial rate of substrate hydrolysis was measured as the change in fluorescent intensity over time, corresponding to the generation of the particular 6-amino-1-naphthalenesulfonamide fluorophore from the provided substrate. Quantitation of substrate hydrolysis was accomplished by establishing a standard curve from the appropriate fluorescent moiety. Fluorescence was monitored (continuously or discontinuously) using a Perkin Elmer fluorescence spectrophotometer, model MPF-44A, equipped with a standard chart recorder. The fluorophore was detected using monochrometers set at an excitation wavelength of 352 nm and an emission wavelength of 470 nm. Light scattering artifacts were minimized using a 399 nm cut off filter in the emission light beam.
Factor VII assays were conducted in 20 mM HEPES, 150 mM NaCl, 5 mM CaCl2, pH 7.4 (HBS) at 37° C. The final volume for all reactions was 1.6 ml. 6-(Mes-D-Leu-Gly-Arg)amino-1-(N,N-diethyl)naphthalenesulfonamide was dissolved in DMSO to a stock concentration of 10 mM. This 10 mM stock solution of was diluted in HBS to final working concentration prior to all assays. For reactions involving tissue factor (TF) and phospholipid vesicles, recombinant human tissue factor was solubilized in either 0.04% n-dodecyl octaethylene glycol (C12 E8) or 0.8% octyl glucoside. The TF/n-dodecyl octaethylene glycol was then relipidated into PCPS or PC vesicles by a 30 minute incubation step as described by Lawson & Mann, J. Biol. Chem. 266: 11317-11327 (1991). TF/octyl glucoside was relipidated into PC or PCPS vesicles by a thirty minute incubation step followed by exhaustive dialysis. The final concentration of tissue factor used in the studies described here ranged from 2 to 50 nM depending on the nature of the experiment.
Fifteen minutes prior to the start of all reactions factor VIIa was added to the reaction system. This incubation period was followed by the addition of substrate (1 μM to 400 μM) to the mixture to start the reaction. In experiments designed to determine kinetic constants of substrate hydrolysis, 50 nM rVIIa was used when no tissue factor was present in the reaction system, while 0.5 nM rVIIa was used when tissue factor was present in the reaction system. The rate of substrate hydrolysis was measured by change in fluorescence over time, which corresponded with the generation of the 6-amino-1-(N,N-diethyl)naphthalenesulfonamide from the provided substrate. The kinetic constants of 6-(Mes-D-Leu-Gly-Arg)amino-1-(N,N-diethyl)naphthalenesulfonamide hydrolysis as a function of factor VIIa/tissue factor complex assembly are shown in Table 10.

[4] = target: T4, thrombin (IIa) (Homo sapiens, UniProt P00734); assay: Fluorogenic enzyme assay (Example 5); set-up: key to Kinetic constants, IIa (symbol b): slow substrate hydrolysis, no kinetic constants calculated; details: for TIME TO 10% HYDROLYSIS (HOURS), IIa: 10 nM enzyme, substrate 1 μM
T4 construct: 0.5 nM human thrombin (IIa)
Procedure: as §2
(§3) The kinetic constants of substrate hydrolysis were determined using the non-linear least squares regression analysis program ENZFITTER (Cambridge, UK). This program was used to iteratively fit initial rates of substrate hydrolysis to the Michaelis-Menten equation and the kinetic constants of substrate hydrolysis (Km) and (kcat) were calculated.

[5] = target: activated protein C (APC) (Homo sapiens, UniProt P04070); assay: Fluorogenic enzyme assay (Example 5); details: for TIME TO 10% HYDROLYSIS (HOURS), APC: 10 nM enzyme, substrate 1 μM; for Km / kcat /Km, APC / kcat, APC: Table 9
Procedure: as §2, §3

[6] = target: factor IXa (Homo sapiens, UniProt P00740); assay: Fluorogenic enzyme assay (Example 5); set-up: key to Kinetic constants, IXa (symbol b): slow substrate hydrolysis, no kinetic constants calculated; details: for Kinetic constants, IXa (symbol b): Table 9; for hydrolysis, IXa (symbol d): at 100 hours, 100 nM enzyme, substrate 1 μM
Procedure: as §2, §3

[7] = target: T2, factor Xa; assay: Fluorogenic enzyme assay (Example 5); set-up: key to Kinetic constants, Xa (symbol b): slow substrate hydrolysis, no kinetic constants calculated
Procedure: as §2, §3

[8] = target: plasmin (Plm) (Homo sapiens, UniProt P00747); assay: Fluorogenic enzyme assay (Example 5); details: 10 nM enzyme, substrate 1 μM
Procedure: as §2, §3

[9] = target: tissue plasminogen activator (t-PA) (Homo sapiens, UniProt P00750); assay: Fluorogenic enzyme assay (Example 5); details: at 100 hours; 100 nM enzyme, substrate 1 μM
Procedure: as §2, §3

[10] = target: urokinase (u-PA) (Homo sapiens, UniProt P00749); assay: Fluorogenic enzyme assay (Example 5); details: 100 nM enzyme, substrate 1 μM
Procedure: as §2, §3

Chain of factor IXa (P00740 227-461 limits assumed): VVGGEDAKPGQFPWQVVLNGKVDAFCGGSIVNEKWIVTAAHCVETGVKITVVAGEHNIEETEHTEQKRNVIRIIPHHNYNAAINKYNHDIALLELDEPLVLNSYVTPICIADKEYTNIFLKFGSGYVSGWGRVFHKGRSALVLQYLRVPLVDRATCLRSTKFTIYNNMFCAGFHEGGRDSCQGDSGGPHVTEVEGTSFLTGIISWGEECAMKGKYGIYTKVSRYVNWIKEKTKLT
Chain of factor IXa (P00740 47-191 limits assumed): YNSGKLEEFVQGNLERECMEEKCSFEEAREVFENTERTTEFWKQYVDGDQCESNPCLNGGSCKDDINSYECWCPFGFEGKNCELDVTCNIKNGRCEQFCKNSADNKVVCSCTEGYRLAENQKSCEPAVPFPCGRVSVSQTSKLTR
T2 sequence (P00742 235-488 limits assumed): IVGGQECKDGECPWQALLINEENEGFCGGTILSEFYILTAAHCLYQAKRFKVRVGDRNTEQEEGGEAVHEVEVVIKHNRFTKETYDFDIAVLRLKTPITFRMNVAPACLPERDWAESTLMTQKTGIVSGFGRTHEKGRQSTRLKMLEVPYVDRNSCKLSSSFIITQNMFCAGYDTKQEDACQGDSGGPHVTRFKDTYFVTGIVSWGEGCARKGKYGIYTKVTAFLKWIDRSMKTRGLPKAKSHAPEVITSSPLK
T2 sequence (P00742 41-179 limits assumed): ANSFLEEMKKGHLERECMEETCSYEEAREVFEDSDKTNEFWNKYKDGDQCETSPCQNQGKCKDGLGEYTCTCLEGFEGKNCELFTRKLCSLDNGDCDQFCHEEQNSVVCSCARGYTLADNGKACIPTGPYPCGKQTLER
Chain of activated protein C (APC) (P04070 212-461 limits assumed): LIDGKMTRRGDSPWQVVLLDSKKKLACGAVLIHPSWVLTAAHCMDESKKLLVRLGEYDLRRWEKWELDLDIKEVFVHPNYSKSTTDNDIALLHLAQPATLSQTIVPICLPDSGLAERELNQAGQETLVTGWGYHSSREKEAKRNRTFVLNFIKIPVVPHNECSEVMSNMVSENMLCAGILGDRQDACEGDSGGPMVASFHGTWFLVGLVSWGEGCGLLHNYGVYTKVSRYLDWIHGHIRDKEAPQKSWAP
Chain of activated protein C (APC) (P04070 43-197 limits assumed): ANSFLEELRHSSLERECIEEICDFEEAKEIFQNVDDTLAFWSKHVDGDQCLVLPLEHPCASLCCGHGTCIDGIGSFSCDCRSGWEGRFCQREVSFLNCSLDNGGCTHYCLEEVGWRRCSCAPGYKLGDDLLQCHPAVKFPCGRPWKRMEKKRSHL
Chain of tissue plasminogen activator (t-PA) (P00750 36-562, species assumed): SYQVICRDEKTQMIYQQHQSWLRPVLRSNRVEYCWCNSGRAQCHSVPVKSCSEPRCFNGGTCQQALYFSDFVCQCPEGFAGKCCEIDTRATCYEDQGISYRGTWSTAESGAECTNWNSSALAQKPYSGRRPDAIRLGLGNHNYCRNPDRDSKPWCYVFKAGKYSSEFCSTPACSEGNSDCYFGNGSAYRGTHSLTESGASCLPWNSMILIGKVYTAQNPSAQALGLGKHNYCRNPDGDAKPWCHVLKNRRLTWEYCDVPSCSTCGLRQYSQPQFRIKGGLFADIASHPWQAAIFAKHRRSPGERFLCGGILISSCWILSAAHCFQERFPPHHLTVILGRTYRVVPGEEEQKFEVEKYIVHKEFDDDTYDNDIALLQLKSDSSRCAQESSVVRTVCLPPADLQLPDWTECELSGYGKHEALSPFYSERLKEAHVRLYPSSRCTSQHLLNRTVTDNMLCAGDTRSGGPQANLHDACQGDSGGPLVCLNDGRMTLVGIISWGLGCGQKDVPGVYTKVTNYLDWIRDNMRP
Chain of plasmin (Plm) (P00747 581-810 limits assumed, species assumed): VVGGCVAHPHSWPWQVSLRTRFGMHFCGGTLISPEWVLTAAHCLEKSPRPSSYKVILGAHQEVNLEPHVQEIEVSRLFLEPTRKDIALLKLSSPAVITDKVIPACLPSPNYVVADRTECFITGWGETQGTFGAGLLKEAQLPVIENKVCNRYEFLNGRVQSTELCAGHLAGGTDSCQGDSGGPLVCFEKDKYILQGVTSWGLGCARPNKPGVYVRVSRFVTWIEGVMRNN
Chain of plasmin (Plm) (P00747 97-580 limits assumed, species assumed): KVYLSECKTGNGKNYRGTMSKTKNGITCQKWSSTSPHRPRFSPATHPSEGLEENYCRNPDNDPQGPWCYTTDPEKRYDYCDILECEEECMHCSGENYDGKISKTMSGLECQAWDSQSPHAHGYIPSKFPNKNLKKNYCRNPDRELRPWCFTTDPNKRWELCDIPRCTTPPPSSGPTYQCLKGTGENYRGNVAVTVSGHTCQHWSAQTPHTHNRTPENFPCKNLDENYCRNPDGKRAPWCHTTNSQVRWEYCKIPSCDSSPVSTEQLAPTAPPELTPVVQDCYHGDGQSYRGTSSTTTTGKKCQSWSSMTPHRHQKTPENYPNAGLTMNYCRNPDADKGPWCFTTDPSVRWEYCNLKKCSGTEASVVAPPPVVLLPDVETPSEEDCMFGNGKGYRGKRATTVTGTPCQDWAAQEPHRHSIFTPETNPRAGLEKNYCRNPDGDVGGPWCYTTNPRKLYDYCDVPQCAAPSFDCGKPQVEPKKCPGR

TIME TO 10% HYDROLYSIS (HOURS), IIa [4]	TIME TO 10% HYDROLYSIS (HOURS), APC [5]	Km [5]	kcat /Km, APC [5]	kcat, APC [5]	Kinetic constants, IXa (symbol b) [6]	TIME TO 10% HYDROLYSIS (HOURS), Plm [8]	Compound	hydrolysis, VIIa (symbol d) [3]	hydrolysis, IXa (symbol d) [6]	hydrolysis, t-PA (symbol d) [9]	further results
–	–	–	–	–	–	–	Cc1ccc(S(=O)(=O)NCC(=O)N2CCC[C@H]2C(=O)N[C@@H](CCCNC(=N)N)C(=O)Nc2ccc([N+](=O)[O-])cc2)cc1 [Chromozyme TH, reference compound] (Tos-Gly-Pro-Arg-pNA)	–	–	–	Kcat [1]: 14.1; Km [1]: 13.8 µM; Kcat [2]: 244 s⁻¹; Km [2]: 364 µM
93 h	0.6 h	320 µM	19300 M⁻¹ s⁻¹	6.2 s⁻¹	b	47 h	N=C(N)NCCC[C@H](NC(=O)CNC(=O)CNC(=O)OCc1ccccc1)C(=O)N[C@@H](CCCNC(=N)N)C(=O)Nc1ccc2c(S(=O)(=O)NC3CCCCC3)cccc2c1 [ZGGRR-ANSNH(cyclo-C6 H11)]	d (hydrolysis at 100 hours was less than 10%.)	d (hydrolysis at 100 hours was less than 10%.)	d (hydrolysis at 100 hours was less than 10%.)	Kinetic constants, IIa (symbol b) ([4]; Table 9): b; Kinetic constants, Xa (symbol b) ([7]; Table 9): b; hydrolysis, Xa (symbol d) ([7]; at 100 hours, 10 nM enzyme, substrate 1 μM): d (hydrolysis at 100 hours was less than 10%.); hydrolysis, u-PA (symbol d) ([10]; at 100 hours): d (hydrolysis at 100 hours was less than 10%.)
5 h	0.25 h	240 µM	19600 M⁻¹ s⁻¹	4.7 s⁻¹	b	13 h	CCCNS(=O)(=O)c1cccc2cc(NC(=O)[C@H](CCCNC(=N)N)NC(=O)[C@H](Cc3ccccc3)NC(=O)[C@@H]3CCCN3)ccc12.Cl.Cl [PFR-ANSNHC3 H7]	d (hydrolysis at 100 hours was less than 10%.)	d (hydrolysis at 100 hours was less than 10%.)	d (hydrolysis at 100 hours was less than 10%.)	Km ([4]; Table 9): 600 µM; kcat /Km, IIa ([4]; Table 9): 600 M⁻¹ s⁻¹; kcat, IIa ([4]; Table 9): 0.36 s⁻¹; TIME TO 10% HYDROLYSIS (HOURS), Xa ([7]; 10 nM enzyme, substrate 1 μM): 1.25 h; Km ([7]; Table 9): 667 µM; kcat /Km, Xa ([7]; Table 9): 2000 M⁻¹ s⁻¹; kcat, Xa ([7]; Table 9): 1.33 s⁻¹; TIME TO 10% HYDROLYSIS (HOURS), u-PA [10]: 6 h
